Columns and labels:
[1] = tested on: phosphorylation of Cdc2 Y15 (Wee1 substrate) in A427 cells; test: Phosphorylated Cdc2 MSD Electrochemiluminescence Assay; type: cell-based; settings: Homo sapiens, A-427, class symbols, read-out: A427 pCDC2 MSD IC50
How it was run: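 A427 cells (RPMI 1640, 10% FBS) treated 20 h after plating with 3-fold serial compound dilutions, in duplicate, 37 °C, 5% CO2; total incubation 6 h. Lysate Cdc2 pY15 read by MSD electrochemiluminescence sandwich immunoassay; % remaining signal normalised to DMSO (high) and reference Wee1 inhibitor (low) controls.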

Wee1 kinase domain = target: T1, Wee1 kinase domain (Homo sapiens, UniProt P30291); test: Wee1 Kinase Biochemical Assay (ADP-Glo); settings: class symbols; 1 nM Wee1 enzyme, 15 uM ATP, 4 hours at 25° C.
T1 construct: Wee1 kinase domain was purchased from Carna (catalog #05-177); purchased Carna 05-177
T1 sequence (P30291 299-569 limits assumed): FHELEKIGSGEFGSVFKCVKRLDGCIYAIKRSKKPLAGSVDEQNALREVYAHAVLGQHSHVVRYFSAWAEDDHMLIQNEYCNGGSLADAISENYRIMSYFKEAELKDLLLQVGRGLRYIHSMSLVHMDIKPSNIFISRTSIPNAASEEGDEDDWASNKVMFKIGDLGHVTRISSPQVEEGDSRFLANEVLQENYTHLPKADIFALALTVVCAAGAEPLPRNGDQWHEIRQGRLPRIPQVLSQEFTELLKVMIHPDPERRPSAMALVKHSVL
How it was run: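 Kinase domain (1 nM) incubated 4 h at 25 °C with 15 uM ATP and 2 ng/mL Poly(Lys,Tyr 4:1) in 40 mM Tris-HCl, 20 mM MgCl2, 0.1 mg/mL BSA, 2 mM DTT. ADP formation read by ADP-Glo luminescence; percent inhibition normalized to DMSO and saturating reference-inhibitor controls.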

CC1(C)C[C@H]2N(c3cccc(N4CCOC4=O)n3)c3nc(Nc4ccc(O[C@H]5CCNC5)cc4)ncc3[C@@]2(C)CO1 [Example 613, 3-(6-((4bR,8aR)-4b,7,7-trimethyl-2-((4-(((S)-pyrrolidin-3-yl)oxy)phenyl)amino)-4b,7,8,8a-tetrahydropyrano[3′,4′:4,5]pyrrolo[2,3-d]pyrimidin-9(5H)-yl)pyridin-2-yl)oxazolidin-2-one]
IC50 [1]: < 100 nM
IC50 (Wee1 kinase domain): < 10 nM

CN1CC[C@H](Oc2ccc(Nc3ncc4c(n3)N(c3cccc(N5CCOC5=O)n3)[C@@H]3CC(C)(C)OC[C@]43C)cc2)C1 [Example 615, 3-(6-((4bR,8aR)-4b,7,7-trimethyl-2-((4-(((S)-1-methylpyrrolidin-3-yl)oxy)phenyl)amino)-4b,7,8,8a-tetrahydropyrano[3′,4′:4,5]pyrrolo[2,3-d]pyrimidin-9(5H)-yl)pyridin-2-yl)oxazolidin-2-one]
IC50 [1]: < 100 nM
IC50 (Wee1 kinase domain): < 10 nM

CC1(C)C[C@H]2N(c3cccc(N4CCCC4=O)n3)c3nc(Nc4ccc(O[C@@H]5CCNC5)cc4)ncc3[C@@]2(C)CO1 [Example 616, 1-(6-((4bR,8aR)-4b,7,7-trimethyl-2-((4-(((R)-pyrrolidin-3-yl)oxy)phenyl)amino)-4b,7,8,8a-tetrahydropyrano[3′,4′:4,5]pyrrolo[2,3-d]pyrimidin-9(5H)-yl)pyridin-2-yl)pyrrolidin-2-one]
IC50 [1]: 100 to 1000 nM
IC50 (Wee1 kinase domain): < 10 nM

CN1CC[C@H](Oc2ccc(Nc3ncc4c(n3)N(c3cccc(N5CCCC5=O)n3)[C@@H]3CC(C)(C)OC[C@]43C)cc2)C1 [Example 618, 1-(6-((4bR,8aR)-4b,7,7-trimethyl-2-((4-(((S)-1-methylpyrrolidin-3-yl)oxy)phenyl)amino)-4b,7,8,8a-tetrahydropyrano[3′,4′:4,5]pyrrolo[2,3-d]pyrimidin-9(5H)-yl)pyridin-2-yl)pyrrolidin-2-one]
IC50 [1]: < 100 nM
IC50 (Wee1 kinase domain): < 10 nM

CC1(C)C[C@H]2N(c3cccc(N4CCCC4=O)n3)c3nc(Nc4ccc(O[C@H]5CCNC5)cc4)ncc3[C@@]2(C)CO1 [Example 620, 1-(6-((4bR,8aR)-4b,7,7-trimethyl-2-((4-(((S)-pyrrolidin-3-yl)oxy)phenyl)amino)-4b,7,8,8a-tetrahydropyrano[3′,4′:4,5]pyrrolo[2,3-d]pyrimidin-9(5H)-yl)pyridin-2-yl)pyrrolidin-2-one]
IC50 [1]: < 100 nM
IC50 (Wee1 kinase domain): < 10 nM

CC1(C)C[C@H]2N(c3cccc(N4CCOC4=O)n3)c3nc(Nc4ccc(O[C@@H]5CCNC5)cc4)ncc3[C@@]2(C)CO1 [Example 622, 3-(6-((4bR,8aR)-4b,7,7-trimethyl-2-((4-(((R)-pyrrolidin-3-yl)oxy)phenyl)amino)-4b,7,8,8a-tetrahydropyrano[3′,4′:4,5]pyrrolo[2,3-d]pyrimidin-9(5H)-yl)pyridin-2-yl)oxazolidin-2-one]
IC50 [1]: 100 to 1000 nM
IC50 (Wee1 kinase domain): < 10 nM

CN1CC[C@@H](Oc2ccc(Nc3ncc4c(n3)N(c3cccc(N5CCOC5=O)n3)[C@@H]3CC(C)(C)OC[C@]43C)cc2)C1 [Example 624, 3-(6-((4bR,8aR)-4b,7,7-trimethyl-2-((4-(((R)-1-methylpyrrolidin-3-yl)oxy)phenyl)amino)-4b,7,8,8a-tetrahydropyrano[3′,4′:4,5]pyrrolo[2,3-d]pyrimidin-9(5H)-yl)pyridin-2-yl)oxazolidin-2-one]
IC50 [1]: 100 to 1000 nM
IC50 (Wee1 kinase domain): < 10 nM

CN1CC[C@@H](Oc2ccc(Nc3ncc4c(n3)N(c3cccc(N5CCCC5=O)n3)[C@@H]3CC(C)(C)OC[C@]43C)cc2)C1 [Example 626, 1-(6-((4bR,8aR)-4b,7,7-trimethyl-2-((4-(((R)-1-methylpyrrolidin-3-yl)oxy)phenyl)amino)-4b,7,8,8a-tetrahydropyrano[3′,4′:4,5]pyrrolo[2,3-d]pyrimidin-9(5H)-yl)pyridin-2-yl)pyrrolidin-2-one]
IC50 [1]: 100 to 1000 nM
IC50 (Wee1 kinase domain): < 10 nM

CN1C[C@@H]2C[C@H]1CN2c1ccc(Nc2ncc3c(n2)N(c2cccc(N4CCCC4=O)n2)[C@@H]2CC(C)(C)OC[C@]32C)cc1 [Example 629, 1-(6-((4bR,8aR)-4b,7,7-trimethyl-2-((4-((1S,4S)-5-methyl-2,5-diazabicyclo[2.2.1]heptan-2-yl)phenyl)amino)-4b,7,8,8a-tetrahydropyrano[3′,4′:4,5]pyrrolo[2,3-d]pyrimidin-9(5H)-yl)pyridin-2-yl)pyrrolidin-2-one]
IC50 [1]: 100 to 1000 nM
IC50 (Wee1 kinase domain): < 10 nM

CN1C[C@H]2C[C@@H]1CN2c1ccc(Nc2ncc3c(n2)N(c2cccc(N4CCCC4=O)n2)[C@@H]2CC(C)(C)OC[C@]32C)cc1 [Example 631, 1-(6-((4bR,8aR)-4b,7,7-trimethyl-2-((4-((1R,4R)-5-methyl-2,5-diazabicyclo[2.2.1]heptan-2-yl)phenyl)amino)-4b,7,8,8a-tetrahydropyrano[3′,4′:4,5]pyrrolo[2,3-d]pyrimidin-9(5H)-yl)pyridin-2-yl)pyrrolidin-2-one]
IC50 [1]: 100 to 1000 nM
IC50 (Wee1 kinase domain): < 10 nM

CC1(C)C[C@H]2N(c3cccc(N4CCCC4=O)n3)c3nc(Nc4ccc([C@@H]5CCNC5)cc4)ncc3[C@@]2(C)CO1 [Example 632, 1-(6-((4bR,8aR)-4b,7,7-trimethyl-2-((4-((S)-pyrrolidin-3-yl)phenyl)amino)-4b,7,8,8a-tetrahydropyrano[3′,4′:4,5]pyrrolo[2,3-d]pyrimidin-9(5H)-yl)pyridin-2-yl)pyrrolidin-2-one]
IC50 [1]: 100 to 1000 nM
IC50 (Wee1 kinase domain): < 10 nM

CN1CC[C@H](c2ccc(Nc3ncc4c(n3)N(c3cccc(N5CCCC5=O)n3)[C@@H]3CC(C)(C)OC[C@]43C)cc2)C1 [Example 634, 1-(6-((4bR,8aR)-4b,7,7-trimethyl-2-((4-((R)-1-methylpyrrolidin-3-yl)phenyl)amino)-4b,7,8,8a-tetrahydropyrano[3′,4′:4,5]pyrrolo[2,3-d]pyrimidin-9(5H)-yl)pyridin-2-yl)pyrrolidin-2-one]
IC50 [1]: 100 to 1000 nM
IC50 (Wee1 kinase domain): < 10 nM

CC1(C)C[C@H]2N(c3cccc(N4CCCC4=O)n3)c3nc(Nc4ccc([C@H]5CCNC5)cc4)ncc3[C@@]2(C)CO1 [Example 636, 1-(6-((4bR,8aR)-4b,7,7-trimethyl-2-((4-((R)-pyrrolidin-3-yl)phenyl)amino)-4b,7,8,8a-tetrahydropyrano[3′,4′:4,5]pyrrolo[2,3-d]pyrimidin-9(5H)-yl)pyridin-2-yl)pyrrolidin-2-one]
IC50 [1]: 100 to 1000 nM
IC50 (Wee1 kinase domain): < 10 nM

CN1C[C@H]2C[C@@H]1CN2c1ccc(Nc2ncc3c(n2)N(c2cccc(N4CCCC4=O)n2)[C@@H]2CC(C)(C)OC[C@]32C)cc1F [Example 638, 1-(6-((4bR,8aR)-2-((3-fluoro-4-((1R,4R)-5-methyl-2,5-diazabicyclo[2.2.1]heptan-2-yl)phenyl)amino)-4b,7,7-trimethyl-4b,7,8,8a-tetrahydropyrano[3′,4′:4,5]pyrrolo[2,3-d]pyrimidin-9(5H)-yl)pyridin-2-yl)pyrrolidin-2-one]
IC50 [1]: 100 to 1000 nM
IC50 (Wee1 kinase domain): < 10 nM

CN1C[C@@H]2C[C@H]1CN2c1ccc(Nc2ncc3c(n2)N(c2cccc(N4CCCC4=O)n2)[C@@H]2CC(C)(C)OC[C@]32C)cc1F [Example 640, 1-(6-((4bR,8aR)-2-((3-fluoro-4-((1S,4S)-5-methyl-2,5-diazabicyclo[2.2.1]heptan-2-yl)phenyl)amino)-4b,7,7-trimethyl-4b,7,8,8a-tetrahydropyrano[3′,4′:4,5]pyrrolo[2,3-d]pyrimidin-9(5H)-yl)pyridin-2-yl)pyrrolidin-2-one]
IC50 [1]: 100 to 1000 nM
IC50 (Wee1 kinase domain): < 10 nM

CN1CC[C@@H](c2ccc(Nc3ncc4c(n3)N(c3cccc(N5CCCC5=O)n3)[C@@H]3CC(C)(C)OC[C@]43C)cc2)C1 [Example 642, 1-(6-((4bR,8aR)-4b,7,7-trimethyl-2-((4-((S)-1-methylpyrrolidin-3-yl)phenyl)amino)-46,7,8,8a-tetrahydropyrano[3′,4′:4,5]pyrrolo[2,3-d]pyrimidin-9(5H)-yl)pyridin-2-yl)pyrrolidin-2-one]
IC50 [1]: 100 to 1000 nM
IC50 (Wee1 kinase domain): < 10 nM

CN1C[C@@H]2C[C@H]1CN2c1ccc(Nc2ncc3c(n2)N(c2cccc(C4(O)CC4)n2)[C@@H]2CC(C)(C)OC[C@]32C)cc1 [Example 644, 1-(6-((4bR,8aR)-4b,7,7-trimethyl-2-((4-((1S,4S)-5-methyl-2,5-diazabicyclo[2.2.1]heptan-2-yl)phenyl)amino)-4b,7,8,8a-tetrahydropyrano[3′,4′:4,5]pyrrolo[2,3-d]pyrimidin-9(5H)-yl)pyridin-2-yl)cyclopropan-1-ol]
IC50 [1]: 100 to 1000 nM
IC50 (Wee1 kinase domain): < 10 nM

C[C@H]1CCC(=O)N1c1cccc(N2c3nc(Nc4ccc(N5C[C@@H]6C[C@H]5CN6C)cc4)ncc3[C@@]3(C)COC(C)(C)C[C@@H]23)n1 [Example 651, (S)-5-methyl-1-(6-((4bR,8aR)-4b,7,7-trimethyl-2-((4-((1S,4S)-5-methyl-2,5-diazabicyclo[2.2.1]heptan-2-yl)phenyl)amino)-4b,7,8,8a-tetrahydropyrano[3′,4′:4,5]pyrrolo[2,3-d]pyrimidin-9(5H)-yl)pyridin-2-yl)pyrrolidin-2-one]
IC50 [1]: 100 to 1000 nM
IC50 (Wee1 kinase domain): < 10 nM

Cc1cc(Nc2ncc3c(n2)N(c2cccc(N4CCCC4=O)n2)[C@@H]2CC(C)(C)OC[C@]32C)ccc1N1C[C@@H]2C[C@H]1CN2C [Example 652, 1-(6-((4bR,8aR)-4b,7,7-trimethyl-2-((3-methyl-4-((1S,4S)-5-methyl-2,5-diazabicyclo[2.2.1]heptan-2-yl)phenyl)amino)-4b,7,8,8a-tetrahydropyrano[3′,4′:4,5]pyrrolo[2,3-d]pyrimidin-9(5H)-yl)pyridin-2-yl)pyrrolidin-2-one]
IC50 [1]: 100 to 1000 nM
IC50 (Wee1 kinase domain): < 10 nM
